# Results: paper PMC6511062, “Preclinical candidate for the treatment of visceral leishmaniasis that acts through proteasome inhibition” (Proceedings of the National Academy of Sciences of the …, 2019)
# Key:
# TA1537 = experiment: Ames test, strain TA1537
# Method: oxidative metabolism system (S9-mix). The maximum concentration tested and […]
# Compound 7a was tested in a bacterial mutation screening assay (Ames test) with Salmonella typhimurium TA1535, TA1537, TA98, TA100 and Escherichia coli WP2uvrA(pKM101) in the presence and absence of an exogenous mammalian […]
# The bacterial mutation screening assay was a plate incorporation test carried out as previously described15 and according to current methodology. […]
# [1] = Pharmacokinetics in male Sprague Dawley rats; format: in vivo; conditions: rat
# Method: Male Sprague Dawley rats (n=3) were dosed either intravenously at a target dose of 3 mg/kg or orally at a target dose of 10, 30, 100 and 300 mg/kg. Following discrete intravenous tail vein dosing from a solution of 5% DMSO/20% kleptose in saline, serial blood samples (~10 µl) were taken via lateral tail vein at 0.01, 0.05, 0.08, 0.25, 0.5, 1, 2, 4, 6, 8 and 24 h post dose and 1/9 diluted with miliQ water, frozen on dry ice, then stored at approximately –20 °C or below until analysis.
# Following discrete oral gavage dosing from a suspension of 1% methyl cellulose at target doses of 10, 30, 100 and 300 mg/kg, respectively, serial blood samples (10 µl) were taken via lateral tail vein at 0.08, 0.25, 0.5, 0.75, 1, 2, 4, 6, 8 and 24 h post dose and 1/9 diluted with miliQ water, frozen on dry ice, then stored at approximately –20°C […]
# Samples were analyzed for parent compound using a method based on protein precipitation followed by UPLC-MS/MS.
# Pharmacokinetic parameters, namely clearance (CL), volume of distribution at steady state (Vss) and bioavailability (F%), were estimated using Phoenix, WinNonLin 6.3.
# Data analysis and calculation of pharmacokinetic parameters was performed using Phoenix, WinNonLin Version 6.3.
# Following the intravenous administration, the whole blood clearance was calculated by determining the dose administered to each animal and dividing by the AUC0-∞ . The estimate of the volume of distribution at steady state (VSS) was calculated as MRT*CL, where MRT is the mean residence time, calculated by AUMC0-∞ /AUC0-∞.
# For both intravenous and oral administration, the systemic exposures were determined by calculating the area under the blood concentration time curve (AUC) from the start of dosing to the last observed quantifiable concentration (AUC0-t) by using the linear up-log down trapezoidal rule. The slope of the terminal elimination phase was estimated by linear regression of the terminal data points (minimum 3 points) from a natural log concentration versus time plot of the data. The half-life (t1/2) of the terminal elimination phase was calculated as t1/2 = 0.693/λ. […]
# mouse lymphoma cells = experiment: Mouse lymphoma assay
# Method: oxidative metabolism system (S9-mix). […]
# The maximum […]
# concentrations analysed were 410.45 µg/mL (1 mM, the maximum concentration in accordance with current guidelines and 100 µg/mL (limited by toxicity), for the 3 and […]
# The mouse lymphoma screen was carried out using test methodology based on established procedures for in vitro gene mutation testing17,18,19,20. […]
# [2] = test system: caspase activity of the L. donovani proteasome; experiment: Proteasome activity assay, caspase-like, L. donovani; format: biochemical, Leishmania donovani
# Method: k. Proteasome activity assays
# Compounds were dispensed into black 384-well assay plates (Greiner) by acoustic dispensing (LabCyte ECHO). For potency determinations, eleven-point, one in three dilution curves were generated, with a top concentration of 100 µM. Three proteasome activities were measured using a commercially available indirect enzyme-based luminescent assay kit (Promega) with Suc-LLVY-aminoluciferin, Z-LRR-aminoluciferin and Z-nLPnLD-aminoluciferin used as substrates for chymotrypsin-like, trypsin-like and caspase-like activities, respectively. In addition to proteasome samples: L. donovani and THP1-enriched proteasomes, commercially available human purified 26S proteasome (Boston Biochem) was also assessed. Proteasome final assay concentration were 0.025 mg/ml for L. donovani and THP1-enriched proteasomes and 1 nM for human purified 26S proteasome. Proteasome solution was added to the plates containing the compounds one hour before adding the proteasome substrate solution.
# Substrate solution was then added and after 30 min of incubation luminescent signal was measured in an Envision reader (PerkinElmer).
# Cultures of L. donovani axenic amastigotes were diluted to either 8 x 106 or 8 x 107 […]
# value. […]
# value) were used as negative and positive controls, respectively. […] Protein concentrations were determined by standard Bradford assays and Laemmli sample buffer was added to samples. […]
# [3] = male, Sprague Dawley, whole blood, 3 mg/kg iv bolus
compound,measurement,setting,value
O=C(Nc1ccc(F)c(-c2ccn3c(N4CCOCC4)cnc3n2)c1)N1CCCC1 [Compound 8],Mean revertants per plate,"TA1537; with S9-mix, dose level 50 per plate",18.0
same,Mean revertants per plate,"TA1537; with S9-mix, dose level 150 per plate",14.5
same,Mean revertants per plate,"TA1537; with S9-mix, dose level 500 per plate",21.0
same,Mean revertants per plate,"TA1537; with S9-mix, dose level 1500 per plate",11.0
same,Mean revertants per plate,"TA1537; with S9-mix, dose level 2500 per plate",13.5
same,Mean revertants per plate,"TA1537; with S9-mix, dose level 5000 per plate",8.5
same,Mean revertants per plate,"TA1537; without S9-mix, dose level 50 per plate",14.0
same,Mean revertants per plate,"TA1537; without S9-mix, dose level 150 per plate",9.5
same,Mean revertants per plate,"TA1537; without S9-mix, dose level 500 per plate",16.0
same,Mean revertants per plate,"TA1537; without S9-mix, dose level 1500 per plate",12.5
same,Mean revertants per plate,"TA1537; without S9-mix, dose level 2500 per plate",14.5
same,Mean revertants per plate,"TA1537; without S9-mix, dose level 5000 per plate",6.5
same,bioavailability,"[1]; male, Sprague Dawley, whole blood, po, 10 mg/kg, SD male rat, 10 mg/kg po, read-out: F (oral bioavailability)",36%
same,clearance,[1]; [3],17 ± 5.2 mL/min/kg
same,half-life,[1]; [3],42 ± 8.4 min
same,Vd,"[1]; male, Sprague Dawley, whole blood, 3 mg/kg iv bolus, read-out: Vss",1 L/kg
same,blood clearance,[1],17 mL/min per kilogram
same,Cl (%LBF),[1]; 3 mg/kg iv,22%
same,MF (Mutation Frequency),"mouse lymphoma cells; 3 hour +S9 treatment, 375 µg/mL",191.25 ×10-6
same,MF (Mutation Frequency),"mouse lymphoma cells; 3 hour +S9 treatment, 410.445 µg/mL",222.38 ×10-6
same,mouse lymphoma screen result,mouse lymphoma cells; 3 hours with S9-mix and 24 hours without S9-mix,negative
same,MF (Mutation Frequency),"mouse lymphoma cells; 24 hour -S9 treatment, 40 µg/mL",75.89 ×10-6
same,MF (Mutation Frequency),"mouse lymphoma cells; 24 hour -S9 treatment, 70 µg/mL",78.36 ×10-6
same,MF (Mutation Frequency),"mouse lymphoma cells; 24 hour -S9 treatment, 100 µg/mL",86.96 ×10-6
same,effect on caspase activity,[2],no effect
